Source: patent US9682925B2, “Cyclopropaneamine compound” (TAKEDA PHARMACEUTICAL COMPANY LIMITED, priority 2011, dated 2017)
Where a name gives a salt, the structure may show the parent alone. Read-outs that look alike come from different tables or passages of the source.

Key:
Format in all cases: biochemical
human LSD1(171-852) = target: T1, human LSD1(171-852) (Homo sapiens, UniProt O60341); experiment: Measurement of LSD1 inhibitory activity (time-resolved fluorescence, biotin-histone H3 mono methylated K4 peptide)
T1 construct: to give hLSD1(171-852) purified product; made in house; host or cells: Escherichia coli C43(DE3) pLysS

MAO-B = target: T2, MAO-B (Homo sapiens, UniProt P27338); experiment: Measurement of MAO-B inhibitory activity (MAO-Glo Assay)
T2 construct: purchased Sigma-Aldrich Co. LLC
T2 sequence (P27338 1-520): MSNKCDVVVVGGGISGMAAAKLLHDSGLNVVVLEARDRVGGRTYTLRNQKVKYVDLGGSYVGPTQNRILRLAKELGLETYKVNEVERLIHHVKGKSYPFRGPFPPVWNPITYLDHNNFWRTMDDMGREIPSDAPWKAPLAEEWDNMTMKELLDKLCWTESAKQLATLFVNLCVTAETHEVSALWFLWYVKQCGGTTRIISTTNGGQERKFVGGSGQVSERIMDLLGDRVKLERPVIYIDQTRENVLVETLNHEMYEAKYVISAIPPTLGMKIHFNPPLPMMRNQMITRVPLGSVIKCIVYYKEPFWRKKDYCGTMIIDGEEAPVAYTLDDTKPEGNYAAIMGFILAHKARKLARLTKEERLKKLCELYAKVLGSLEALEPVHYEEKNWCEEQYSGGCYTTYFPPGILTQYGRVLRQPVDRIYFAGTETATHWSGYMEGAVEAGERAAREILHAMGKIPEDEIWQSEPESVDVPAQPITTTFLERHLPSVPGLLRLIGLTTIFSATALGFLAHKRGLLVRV
Method in brief: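 Percent inhibition was calculated from luciferin-based luminescence, corrected with a blank lacking enzyme and a control lacking compound. The reaction ran 60 min at room temperature after adding MAO substrate (16 µM as added). This followed a 10 min compound–enzyme preincubation in HEPES pH 7.5 buffer.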

MAO-A = target: T3, MAO-A (Homo sapiens, UniProt P21397); experiment: Measurement of MAO-A inhibitory activity (MAO-Glo Assay)
T3 construct: purchased Sigma-Aldrich Co. LLC
T3 sequence (P21397 1-527): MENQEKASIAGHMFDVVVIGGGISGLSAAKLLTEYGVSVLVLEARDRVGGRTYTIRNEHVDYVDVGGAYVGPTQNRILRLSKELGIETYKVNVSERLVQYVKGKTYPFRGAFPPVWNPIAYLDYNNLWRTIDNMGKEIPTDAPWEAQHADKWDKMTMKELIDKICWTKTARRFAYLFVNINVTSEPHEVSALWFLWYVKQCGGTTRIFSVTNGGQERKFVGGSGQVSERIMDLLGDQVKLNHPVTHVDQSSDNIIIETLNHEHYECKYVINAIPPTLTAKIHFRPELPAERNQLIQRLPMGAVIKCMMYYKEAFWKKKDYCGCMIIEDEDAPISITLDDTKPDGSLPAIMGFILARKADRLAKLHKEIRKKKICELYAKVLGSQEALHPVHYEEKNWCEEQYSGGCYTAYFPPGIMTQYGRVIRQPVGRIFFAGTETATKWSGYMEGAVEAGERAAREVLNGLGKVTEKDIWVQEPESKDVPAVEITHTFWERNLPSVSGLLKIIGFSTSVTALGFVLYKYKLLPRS
Method in brief: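 Luminescent MAO-Glo read-out: % inhibition computed from counts relative to enzyme-only control and enzyme-free blank. Compound and 400 ng MAO-A in HEPES pH 7.5 with 5% glycerol stood 10 min at room temperature before MAO substrate (160 μM stock) started a 60 min reaction.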

Compound | IC50 (human LSD1(171-852); read-out: LSD1 IC50 value) [µM] | IC50 (MAO-B) [µM] | IC50 (MAO-A) [µM] | IC50 (human LSD1(171-852)) [µM]
CN(C)c1ccccc1CN[C@@H]1C[C@H]1c1ccc(NC(=O)c2cccc(C(F)(F)F)c2)cc1 (relative stereo) [Example 142, N-{4-[trans-2-{[2-(dimethylamino)benzyl]amino}cyclopropyl]phenyl}-3-(trifluoromethyl)benzamide hydrochloride] | 0.1 | > 10 | > 10 | –
O=C1c2ccccc2CN1c1ccc([C@@H]2C[C@H]2NCC2CC2)cc1 (relative stereo) [Example 144, 2-(4-{trans-2-[(cyclopropylmethyl)amino]cyclopropyl}phenyl)isoindolin-1-one hydrochloride] | 0.2 | > 10 | > 10 | –
O=C(Nc1ccc([C@@H]2C[C@H]2NCC2CC2)cc1)c1cccc(-n2ccnc2)c1 (relative stereo) [Example 148, N-(4-{trans-2-[(cyclopropylmethyl)amino]cyclopropyl}phenyl)-3-(1H-imidazol-1-yl)benzamide hydrochloride] | < 0.1 | > 10 | 8.3 | –
CN1C2CCC1CC(N[C@@H]1C[C@H]1c1ccc(NC(=O)c3cccc(C(F)(F)F)c3)cc1)C2 (relative stereo) [Example 149, N-(4-{trans-2-[(8-methyl-8-azabicyclo[3.2.1]oct-3-yl)amino]cyclopropyl}phenyl)-3-(trifluoromethyl)benzamide dihydrochloride] | – | > 10 | > 10 | < 0.1
CN1CCC(N[C@@H]2C[C@H]2c2ccc(N(C)C(=O)c3cccc(C(F)(F)F)c3)cc2)CC1 (relative stereo) [Example 150, N-methyl-N-(4-{trans-2-[(1-methylpiperidin-4-yl)amino]cyclopropyl}phenyl)-3-(trifluoromethyl)benzamide dihydrochloride] | < 0.1 | > 10 | > 10 | –
O=C(Nc1ccc([C@@H]2C[C@H]2NC2CCS(=O)(=O)CC2)cc1)c1cccc(C(F)(F)F)c1 (relative stereo) [Example 151, N-(4-{trans-2-[(1,1-dioxidotetrahydro-2H-thiopyran-4-yl)amino]cyclopropyl}phenyl)-3-(trifluoromethyl)benzamide hydrochloride] | < 0.1 | > 10 | > 10 | –
O=C(Nc1ccc([C@@H]2C[C@H]2NC2CCC(F)(F)CC2)cc1)c1cccc(C(F)(F)F)c1 (relative stereo) [Example 154, N-(4-{trans-2-[(4,4-difluorocyclohexyl)amino]cyclopropyl}phenyl)-3-(trifluoromethyl)benzamide hydrochloride] | < 0.1 | > 10 | > 10 | –
CN1CCC(CN[C@@H]2C[C@H]2c2ccc(NC(=O)c3cccc(C(F)(F)F)c3)cc2)CC1 (relative stereo) [Example 155, N-{4-[trans-2-{[(1-methylpiperidin-4-yl)methyl]amino}cyclopropyl]phenyl}-3-(trifluoromethyl)benzamide dihydrochloride] | < 0.1 | > 10 | > 10 | –
Cc1cc(C(=O)Nc2ccc([C@@H]3C[C@H]3NCC3CC3)cc2)n(C)n1 (relative stereo) [Example 156, N-(4-{trans-2-[(cyclopropylmethyl)amino]cyclopropyl}phenyl)-1,3-dimethyl-1H-pyrazole-5-carboxamide dihydrochloride] | < 0.1 | > 10 | > 10 | –
Cc1cc(C(=O)Nc2ccc([C@@H]3C[C@H]3NCC3CC3)cc2)nn1C (relative stereo) [Example 157, N-(4-{trans-2-[(cyclopropylmethyl)amino]cyclopropyl}phenyl)-1,5-dimethyl-1H-pyrazole-3-carboxamide dihydrochloride] | 0.1 | > 10 | > 10 | –
Cn1cc(C(=O)Nc2ccc([C@@H]3C[C@H]3NCC3CC3)cc2)c(C(F)(F)F)n1 (relative stereo) [Example 158, N-(4-{trans-2-[(cyclopropylmethyl)amino]cyclopropyl}phenyl)-1-methyl-3-(trifluoromethyl)-1H-pyrazole-4-carboxamide hydrochloride] | < 0.1 | > 10 | > 10 | –

Now from value to compound, other results behind:

IC50 (human LSD1(171-852); read-out: LSD1 IC50 value) [µM] | IC50 (MAO-B) [µM] | IC50 (MAO-A) [µM] | Compound | IC50 (human LSD1(171-852)) [µM]
< 0.1 | > 10 | 4.2 | O=C(Nc1ccc([C@@H]2C[C@H]2NCC2CC2)cc1)c1cc(-c2ccccc2)cs1 (relative stereo) [Example 137, N-(4-{trans-2-[(cyclopropylmethyl)amino]cyclopropyl}phenyl)-4-phenylthiophene-2-carboxamide hydrochloride] | –
< 0.1 | > 10 | > 10 | O=C(Nc1ccc([C@@H]2C[C@H]2NCC2CC2)cc1)c1ccc(-c2ncccn2)cc1 (relative stereo) [Example 138, N-(4-{trans-2-[(cyclopropylmethyl)amino]cyclopropyl}phenyl)-4-(pyrimidin-2-yl)benzamide hydrochloride] | –
< 0.1 | > 10 | 8.2 | O=C(Nc1ccc([C@@H]2C[C@H]2NCC2CC2)cc1)c1cccc(-c2ncccn2)c1 (relative stereo) [Example 139, N-(4-{trans-2-[(cyclopropylmethyl)amino]cyclopropyl}phenyl)-3-(pyrimidin-2-yl)benzamide hydrochloride] | –
< 0.1 | > 10 | > 10 | O=C(Nc1ccc([C@@H]2C[C@H]2NCC2CC2)cc1)c1ccccc1 (relative stereo) [Example 140, N-(4-{trans-2-[(cyclopropylmethyl)amino]cyclopropyl}phenyl)benzamide hydrochloride] | –
< 0.1 | > 10 | > 10 | O=C(Nc1ccc([C@@H]2C[C@H]2NCC2CC2)cc1)C1CCCCC1 (relative stereo) [Example 141, N-(4-{trans-2-[(cyclopropylmethyl)amino]cyclopropyl}phenyl)-cyclohexanecarboxamide hydrochloride] | –
< 0.1 | > 10 | 4.5 | O=C1c2ccccc2C(=O)N1c1ccc([C@@H]2C[C@H]2NCC2CC2)cc1 (relative stereo) [Example 143, 2-(4-{trans-2-[(cyclopropylmethyl)amino]cyclopropyl}phenyl)-1H -isoindole-1,3(2H)-dione hydrochloride] | –
< 0.1 | > 10 | > 10 | NS(=O)(=O)c1cccc(C(=O)Nc2ccc([C@@H]3C[C@H]3NCC3CC3)cc2)c1 (relative stereo) [Example 145, N-(4-{trans-2-[(cyclopropylmethyl)amino]cyclopropyl}phenyl)-3-sulfamoylbenzamide hydrochloride] | –
< 0.1 | > 10 | 6.7 | O=C(Nc1ccc([C@@H]2C[C@H]2NCC2CC2)cc1)c1cccc(Cn2ccnc2)c1 (relative stereo) [Example 146, N-(4-{trans-2-[(cyclopropylmethyl)amino]cyclopropyl}phenyl)-3-(1H-imidazol-1-ylmethyl)benzamide hydrochloride] | –
< 0.1 | > 10 | > 10 | O=C(Nc1ccc([C@@H]2C[C@H]2NCC2CC2)cc1)c1cccc(Cn2cncn2)c1 (relative stereo) [Example 147, N-(4-{trans-2-[(cyclopropylmethyl)amino]cyclopropyl}phenyl)-3-(1H-1,2,4-triazol-1-ylmethyl)benzamide hydrochloride] | –
